Data taken from patent US11633378B2, “Methods and compositions for delivering mycophenolic acid active agents to non-human mammals” (OKAVA PHARMACEUTICALS, INC., priority 2017, dated 2023).
Read-outs that look alike come from different tables or passages of the source.

Experiment: Study 1: single dose cross-over pharmacokinetics, oral vs intracolonic Na.MPA
Set-up: species or system male beagle dogs
Details: dog, in vivo
Experimental: Two single dose cross-over studies were conducted using a canine model (male beagle dogs) to evaluate the potential of an enteric coated-extended release sodium mycophenolate formulation (“EC-ER-Na.MP”). In a first cross-over study, the pharmacokinetics of MPA and its metabolites (MPAG and AcMPAG) following oral dosing of 180 mg of EC-Na.MPA was compared with intracolonic (IC) administration of Na.MPA. In a second cross-over study, 270 mg of an EC-ER-Na.MPA formulation was administered in the both fed and fasted states and pharmacokinetics were compared with oral administration of 10 mg/kg MMF in the fasted state. Both studies were conducted by Absorption Systems (San Diego, Calif.).
Study 1: For three days prior to IC dosing, dogs (n=5) were offered a soft diet consisting of canned wet food (Pedigree® Choice Cuts). Otherwise, the dogs were offered their standard diet (LabDiet 5006 laboratory canine diet). Prior to each dosing event, the dogs were fasted for 12 hours prior to dosing until 4 hours post-dose, when food was returned. Animals had free access to water throughout the study. Prior to IC dosing, each dog was given a non-stimulant enema approximately 1 hour prior to dosing to remove feces from the colon. Prior to PO dosing, each dog (n=5) was pre-treated with an intramuscular dose of pentagastrin (6 μg/kg) approximately 30 minutes prior to dosing. Capsules were administered by placement in the back of the throat followed by a 10 mL flush with water.
Each dog received a total dose of 180 mg of MPA for each dose. For IC dosing, MPA was delivered as a solution via an endoscope, and for PO dosing each dog received a single Myfortic® 180 mg enteric coated capsule. Following administration, blood samples were collected up to 24 hours post-dose. Plasma concentrations of MPA, MPAG, and AcMPAG were determined with a qualified LC-MS/MS method, and pharmacokinetic parameters were determined with WinNonlin v.6.4 software.

## COc1c(C)c2c(c(O)c1C/C=C(\C)CCC(=O)O)C(=O)OC2 [MPA, Mycophenolic acid]
male, beagle, 180 mg
  Cmax: 29500 ± 12600 ng/mL
  MPA Cmax: 29460 ng/mL
  half-life: 5.55 ± 1.77 h
male, beagle, po, 180 mg
  Cmax: 27300 ± 12000 ng/mL
  MPA Cmax: 27320 ng/mL
  half-life: 4.49 h

## COc1c(C)c2c(c(O)c1C/C=C(\C)CCC(=O)O)C(=O)OC2 [Na•MPA, sodium mycophenolate]
  MPA:metabolite ratios compared with oral MMF or enteric-coated Na.MPA: higher MPA:metabolite ratios
Male beagle dogs, plasma, ORAL 180 mg (Myfortic enteric coated capsule), single dose, fasted, read-out: MPA MRTlast
  MRT last: 2.86 h
male, beagle, 180 mg
  AUC(0-inf): 31900 ng·h/mL
  AUC(0-t): 31000 ng·h/mL
  MPA Cmax: 29460 ng/mL
  MPA t1/2: 5.55 h
  MPA/AcMPAG Ratio (AUClast): 171.19
  MPA/MPAG Ratio (AUC∞): 2.45
  MRT last: 2.76 h
  Tmax: 0.23 h
male, beagle, po, 180 mg
  AUC(0-inf): 45700 ng·h/mL
  AUC(0-t): 36400 ng·h/mL
  MPA Cmax: 27320 ng/mL
  MPA t1/2: 4.49 h
  MPA/AcMPAG Ratio (AUClast): 88.40
  MPA/MPAG Ratio (AUClast): 1.42
  MPA/MPAG Ratio (AUC∞): 1.29
  Tmax: 1 h
